# Measured values: article PMC4980604 (Scientific Reports, 2016)
# Target: T1, P-glycoprotein (P-gp) (Homo sapiens, UniProt P08183)
# T1 construct: gene ABCB1; P-gp membranes (Pgp-Glo assay system)
# Test: Pgp-Glo ATPase stimulation at […] (membranes)
# Format: biochemical
# T1 sequence (P08183 whole entry): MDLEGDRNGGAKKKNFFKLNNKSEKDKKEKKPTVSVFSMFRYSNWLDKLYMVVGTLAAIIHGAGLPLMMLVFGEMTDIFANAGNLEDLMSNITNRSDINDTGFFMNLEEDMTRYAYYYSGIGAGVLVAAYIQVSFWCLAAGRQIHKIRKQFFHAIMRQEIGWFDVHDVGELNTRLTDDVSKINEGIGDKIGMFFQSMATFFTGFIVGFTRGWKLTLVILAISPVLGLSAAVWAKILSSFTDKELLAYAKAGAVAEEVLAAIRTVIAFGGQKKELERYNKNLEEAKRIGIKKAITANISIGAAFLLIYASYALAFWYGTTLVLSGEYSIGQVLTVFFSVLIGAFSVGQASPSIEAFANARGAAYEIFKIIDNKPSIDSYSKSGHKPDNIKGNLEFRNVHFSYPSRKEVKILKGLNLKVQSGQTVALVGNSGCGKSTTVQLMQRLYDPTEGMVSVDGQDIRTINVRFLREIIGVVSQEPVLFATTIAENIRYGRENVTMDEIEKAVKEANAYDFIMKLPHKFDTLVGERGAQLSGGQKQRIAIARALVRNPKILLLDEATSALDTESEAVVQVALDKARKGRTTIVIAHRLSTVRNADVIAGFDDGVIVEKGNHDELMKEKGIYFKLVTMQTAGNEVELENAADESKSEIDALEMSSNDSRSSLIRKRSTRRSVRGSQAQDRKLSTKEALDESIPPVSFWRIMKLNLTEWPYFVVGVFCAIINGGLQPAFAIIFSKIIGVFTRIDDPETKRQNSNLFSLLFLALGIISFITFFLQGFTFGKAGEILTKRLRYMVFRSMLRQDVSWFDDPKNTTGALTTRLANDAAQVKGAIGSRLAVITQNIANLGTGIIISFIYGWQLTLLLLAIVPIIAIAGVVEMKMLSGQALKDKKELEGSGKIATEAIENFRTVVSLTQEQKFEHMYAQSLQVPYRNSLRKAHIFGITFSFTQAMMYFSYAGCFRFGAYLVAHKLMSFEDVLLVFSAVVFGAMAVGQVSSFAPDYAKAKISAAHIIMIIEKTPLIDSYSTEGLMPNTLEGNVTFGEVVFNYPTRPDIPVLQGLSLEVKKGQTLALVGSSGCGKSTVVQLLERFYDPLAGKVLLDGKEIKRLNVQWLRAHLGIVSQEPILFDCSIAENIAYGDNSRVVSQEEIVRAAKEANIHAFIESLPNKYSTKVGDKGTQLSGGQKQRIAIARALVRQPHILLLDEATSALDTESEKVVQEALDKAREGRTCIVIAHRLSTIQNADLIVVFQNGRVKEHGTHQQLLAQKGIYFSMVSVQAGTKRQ
smiles,measurement,value
CC[C@]1(O)C[C@H]2CN(CCc3c([nH]c4ccccc34)[C@@](C(=O)OC)(c3cc4c(cc3OC)N(C=O)[C@H]3[C@@](O)(C(=O)OC)[C@H](OC(C)=O)[C@]5(CC)C=CCN6CC[C@]43[C@@H]65)C2)C1 [vincristine],Pgp-Glo ATPase stimulation at 2 μM (membranes),verapamil and vincristine induced an obvious increase in activity of P-gp ATPase
